A polymer gas permeability compilation

| Compound | CH4 permeability [Barrer] | CO2 permeability [Barrer] | H2 permeability [Barrer] | N2 permeability [Barrer] | O2 permeability [Barrer] |
| --- | --- | --- | --- | --- | --- |
| *C(=C(*)c1ccc2c(c1)C(C)(C)c1ccccc1-2)c1cc(F)cc(F)c1 (repeat unit) | 4200 | 9200 | 5000 | 1700 | 2700 |
| *C(=C(*)c1ccc2c(c1)C(C)(C)c1ccccc1-2)c1ccc(Br)cc1 (repeat unit) | 9300 | 17000 | 8700 | 3500 | 5000 |
| *C(=C(*)c1ccc2c(c1)C(C)(C)c1ccccc1-2)c1ccc(C(C)(C)C)cc1 (repeat unit) | 6600 | 11000 | 6300 | 2500 | 3500 |
| *C(=C(*)c1ccc2c(c1)C(C)(C)c1ccccc1-2)c1ccc(F)cc1 (repeat unit) | 11000 | 21000 | 11000 | 4700 | 6200 |
| *C(=C(*)c1ccc2c(c1)C(C)(C)c1ccccc1-2)c1ccc([Si](C)(C)C)cc1 (repeat unit) | 525 | 1900 | 1040 | 200 | 455 |
| *c1ccc(-c2ccc(Oc3ccc4c(c3)C3(CC4(C)C)CC(C)(C)c4ccc(Oc5ccc(-c6ccc(N7C(=O)c8ccc(Oc9ccc(C(C)(C)c%10ccc(Oc%11ccc%12c(c%11)C(=O)N(*)C%12=O)cc%10)cc9)cc8C7=O)cc6)cc5C(F)(F)F)cc43)c(C(F)(F)F)c2)cc1 (repeat unit) | 0.35 | 23.9 |  | 1.02 | 9.92 |
| *c1ccc(C(C)(C)c2ccc(-n3c(=O)c4cc5c(=O)n(*)c(=O)c5cc4c3=O)cc2)cc1 (repeat unit) | 0.901 | 26.9 | 17 | 1.5 | 7.1 |
| *c1ccc(C(c2ccc(-c3nc4cc(C(c5ccc6oc(*)nc6c5)(C(F)(F)F)C(F)(F)F)ccc4o3)cc2)(C(F)(F)F)C(F)(F)F)cc1 (repeat unit) | 176 | 4540 | 3900 | 300 | 1150 |
| *c1ccc(C)c(-c2cc(C)c(-c3cc(*)ccc3C)cc2C)c1 (repeat unit) | 1.9 | 62 | 100 | 2.4 | 12 |
| *c1ccc(C2(c3ccc(*)cc3)OC(=O)c3ccccc32)cc1 (repeat unit) | 2.88 | 72 | 74 | 2.39 | 11 |
| *c1ccc(Oc2cc3c(cc2C)OC2(CC3(C)C)CC(C)(C)c3cc(Oc4ccc(*)cc4)c(C)cc3O2)cc1 (repeat unit) | 0.77 | 29.3 |  | 1.33 | 6.17 |

The remaining lines, values ahead:

| CH4 permeability [Barrer] | CO2 permeability [Barrer] | H2 permeability [Barrer] | N2 permeability [Barrer] | O2 permeability [Barrer] | Compound |
| --- | --- | --- | --- | --- | --- |
| 0.25 | 15.6 |  | 0.61 |  | *c1ccc(-c2nnc(-c3ccc(N4C(=O)c5ccc(C(c6ccc7c(c6)C(=O)N(*)C7=O)(C(F)(F)F)C(F)(F)F)cc5C4=O)cc3)o2)cc1 (repeat unit) |
| 0.217 | 10.7 | 38.2 | 0.473 | 2.89 | *c1ccc(C(C)(C)c2cccc(N3C(=O)c4ccc(C(c5ccc6c(c5)C(=O)N(*)C6=O)(C(F)(F)F)C(F)(F)F)cc4C3=O)c2)cc1 (repeat unit) |
| 0.191 | 17.5 | 30.8 | 0.375 | 2.18 | *c1ccc(C(c2ccc(N3C(=O)c4ccc(C(=O)c5ccc6c(c5)C(=O)N(*)C6=O)cc4C3=O)cc2)(C(F)(F)F)C(F)(F)F)cc1 (repeat unit) |
| 14.6 | 271 |  | 14.1 |  | *c1ccc(C2(c3ccc(N4C(=O)c5ccc(C(c6ccc7c(c6)C(=O)N(*)C7=O)(C(F)(F)F)C(F)(F)F)cc5C4=O)cc3)c3cc(C(C)(C)C)ccc3-c3ccc(C(C)(C)C)cc32)cc1 (repeat unit) |
| 1.96 | 58.9 |  | 3.3 |  | *c1ccc(C2(c3ccc(N4C(=O)c5ccc(C(c6ccc7c(c6)C(=O)N(*)C7=O)(C(F)(F)F)C(F)(F)F)cc5C4=O)cc3)c3ccccc3-c3ccccc32)cc1 (repeat unit) |
| 0.85 | 29 |  | 0.73 | 3.36 | *c1ccc(Cc2ccc(N3C(=O)c4cc(Oc5ccccc5)c(-c5cc6c(cc5Oc5ccccc5)C(=O)N(*)C6=O)cc4C3=O)cc2)cc1 (repeat unit) |
| 0.0278 | 1.41 |  | 0.0483 | 0.369 | *c1ccc(Cc2ccc(N3C(=O)c4ccc(-c5ccc6c(c5)C(=O)N(*)C6=O)cc4C3=O)c(C)c2)cc1C (repeat unit) |
| 0.0164 | 0.978 |  | 0.0307 | 0.26 | *c1ccc(Cc2ccc(N3C(=O)c4ccc(-c5ccc6c(c5)C(=O)N(*)C6=O)cc4C3=O)c(Cl)c2)cc1Cl (repeat unit) |
| 0.0054 | 0.315 |  | 0.0103 | 0.0923 | *c1ccc(Cc2ccc(N3C(=O)c4ccc(-c5ccc6c(c5)C(=O)N(*)C6=O)cc4C3=O)cc2Br)c(Br)c1 (repeat unit) |
| 0.0129 | 0.542 |  | 0.0203 | 0.143 | *c1ccc(Cc2ccc(N3C(=O)c4ccc(-c5ccc6c(c5)C(=O)N(*)C6=O)cc4C3=O)cc2F)c(F)c1 (repeat unit) |
| 0.198 | 8.75 |  | 0.406 | 2.51 | *c1ccc(Cc2ccc(N3C(=O)c4ccc(C(c5ccc6c(c5)C(=O)N(*)C6=O)(C(F)(F)F)C(F)(F)F)cc4C3=O)c(C)c2)cc1C (repeat unit) |
| 0.121 | 6.78 |  | 0.269 | 1.81 | *c1ccc(Cc2ccc(N3C(=O)c4ccc(C(c5ccc6c(c5)C(=O)N(*)C6=O)(C(F)(F)F)C(F)(F)F)cc4C3=O)c(Cl)c2)cc1Cl (repeat unit) |
| 0.344 | 15.2 | 44.7 | 0.686 | 3.88 | *c1ccc(Cc2ccc(N3C(=O)c4ccc(C(c5ccc6c(c5)C(=O)N(*)C6=O)(C(F)(F)F)C(F)(F)F)cc4C3=O)cc2)cc1 (repeat unit) |
| 0.064 | 2.75 | 9.4 | 0.105 | 0.6 | *c1ccc(N2C(=O)c3ccc([Si](C)(C)c4ccc5c(c4)C(=O)N(*)C5=O)cc3C2=O)cc1 (repeat unit) |
| 1.51 | 36.6 |  | 3.11 | 17.1 | *c1ccc(Oc2ccc(-c3ccc(-c4ccc(-c5ccc(Oc6ccc(N7C(=O)c8ccc(C(c9ccc%10c(c9)C(=O)N(*)C%10=O)(C(F)(F)F)C(F)(F)F)cc8C7=O)cc6)c(C(F)(F)F)c5)cc4)cc3)cc2C(F)(F)F)cc1 (repeat unit) |
